Laboratory results: US12590099B2, “Inhibitors of histone deacetylase useful for the treatment or prevention of HIV infection” (Merck Sharp & Dohme LLC, priority 2018, dated 2026)
pIC50: −log10 of the molar value.

Tests used:
Assay type in all cases: biochemical
[1] = target: T1, Recombinant human HDAC3/SMRT heterodimer (Homo sapiens, UniProt O15379); test: Human HDAC enzyme inhibitor Fluor-de-Lys assay, HDAC3/SMRT
T1 construct: FLAG (C); made in house

[2] = target: T2, Recombinant human HDAC1 (Homo sapiens, UniProt Q13547); test: Human HDAC enzyme inhibitor Fluor-de-Lys assay, HDAC1
T2 construct: FLAG (C); made in house
T2 sequence (Q13547 whole entry): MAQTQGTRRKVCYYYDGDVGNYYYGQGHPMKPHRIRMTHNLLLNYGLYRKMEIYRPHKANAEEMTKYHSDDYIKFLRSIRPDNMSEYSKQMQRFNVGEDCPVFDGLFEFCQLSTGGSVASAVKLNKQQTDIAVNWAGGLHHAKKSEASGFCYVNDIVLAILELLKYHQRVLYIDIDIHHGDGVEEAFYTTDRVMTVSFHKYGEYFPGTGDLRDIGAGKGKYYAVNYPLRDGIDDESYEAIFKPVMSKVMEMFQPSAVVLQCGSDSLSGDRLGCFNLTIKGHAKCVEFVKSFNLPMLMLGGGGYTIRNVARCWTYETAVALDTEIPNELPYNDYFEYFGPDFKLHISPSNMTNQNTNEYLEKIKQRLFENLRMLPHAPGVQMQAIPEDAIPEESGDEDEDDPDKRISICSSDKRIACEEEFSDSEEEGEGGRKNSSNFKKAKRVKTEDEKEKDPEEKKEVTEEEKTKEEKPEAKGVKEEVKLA
Experimental: (§1) Human HDAC Enzyme Inhibitor Fluor-De-Lys Assay
(§2) Recombinant human HDAC8 (BML-SE145-0100) and HDAC10 (BML-SE559-0050) enzymes, HDAC substrates BML-KI104 and BML-KI178, and HDAC developer solutions BML-KI105 and BML-KI176 were purchased from Enzo Life Sciences. […] HDAC inhibitor suberoylanilide hydroxamic acid (SAHA) was obtained from Indofine and trichostatin A (TSA) was obtained from Sigma-Aldrich.
(§3) Recombinant human HDAC1, HDAC2, and HDAC3/SMRT heterodimer were prepared by Merck Research Laboratories. […] The eluted protein was then passed over an anti-HDAC1 immunoaffinity column to remove any complexes containing HDAC1. […]
(§4) The histone deacetylase activities of HDAC1, HDAC2, HDAC3, HDAC6, and HDAC8 were measured in modified FLUOR DE LYS assays in 384-well format. In this assay, HDAC enzymes are initially incubated with an ε-acetyl (or -trifluoroacetyl)-L-lysine-containing substrate with a C-terminal amide having aminomethylcoumarin as the amine component. HDACs cleave the ε-acetyl group, rendering the resulting product susceptible to AMC cleavage by trypsin. The released AMC is then detected by its fluorescence.
(§5) The HDAC3/SMRT assay employed buffer B, consisting of 20 mM HEPES, pH 8.0, 1 mM MgCl2, 50 mM NaCl, 2.7 mM KCl, 0.05% BSA, 0.005% Tween 20, and 10 μM IP4. […] The HDAC8 assay employed buffer D, consisting of 20 mM HEPES, pH 8.0, 1 mM MgCl2, 100 mM NaCl, 20 mM KCl, 0.10% n-octyl-β-D-glucoside (Anatrace) and 0.05% BSA. All steps were performed at room temperature (23° C.). The assay was performed by pre-incubating serial dilutions of test compounds with the target HDAC prior to initiation with substrate. Each compound was titrated in a 10-point dose response, using a 1:3 fold dilution scheme, with 0.15 ul of solution added by ECH0555 to the plate, followed by the addition of 20 μl of the appropriate HDAC isoform diluted in appropriate assay buffer. […] Final conditions used for each assay were: 1. HDAC 1, 0.3 nM total enzyme, 20 μM substrate BML-KI104; 2. […] HDAC 3/SMRT, 0.3 nM total enzyme, 20 μM substrate BML-KI104; 4. […] The reactions were stopped and developed by addition of 30 ul of HDAC developer solution containing a saturating level of HDAC inhibitor as follows: 1.

[3] = target: T3, Recombinant human HDAC2 (Homo sapiens, UniProt Q92769); test: Human HDAC enzyme inhibitor Fluor-de-Lys assay, HDAC2
T3 construct: Full length human HDAC2-FLAG was expressed in baculovirus infected Sf9 cells; FLAG (C); made in house; host or cells: Sf9 (baculovirus)
T3 sequence (Q92769 whole entry): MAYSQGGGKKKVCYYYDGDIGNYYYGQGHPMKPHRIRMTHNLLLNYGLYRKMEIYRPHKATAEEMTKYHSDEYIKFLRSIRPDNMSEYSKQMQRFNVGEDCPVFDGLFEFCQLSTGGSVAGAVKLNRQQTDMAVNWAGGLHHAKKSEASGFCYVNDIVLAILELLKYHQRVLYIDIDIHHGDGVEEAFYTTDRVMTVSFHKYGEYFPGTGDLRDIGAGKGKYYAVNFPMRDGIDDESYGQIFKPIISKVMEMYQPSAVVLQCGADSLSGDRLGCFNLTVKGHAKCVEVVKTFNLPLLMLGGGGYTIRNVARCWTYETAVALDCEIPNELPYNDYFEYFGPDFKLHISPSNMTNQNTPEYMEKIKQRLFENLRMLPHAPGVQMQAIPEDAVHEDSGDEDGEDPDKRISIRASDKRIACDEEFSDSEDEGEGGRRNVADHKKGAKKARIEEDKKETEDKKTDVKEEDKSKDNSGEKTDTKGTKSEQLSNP
Experimental: as §1, §2, §3, §4, §5

[4] = target: T4, HDAC6 (Homo sapiens, UniProt Q9UBN7); test: Human HDAC enzyme inhibitor Fluor-de-Lys assay, HDAC6
T4 sequence (Q9UBN7 1-1215): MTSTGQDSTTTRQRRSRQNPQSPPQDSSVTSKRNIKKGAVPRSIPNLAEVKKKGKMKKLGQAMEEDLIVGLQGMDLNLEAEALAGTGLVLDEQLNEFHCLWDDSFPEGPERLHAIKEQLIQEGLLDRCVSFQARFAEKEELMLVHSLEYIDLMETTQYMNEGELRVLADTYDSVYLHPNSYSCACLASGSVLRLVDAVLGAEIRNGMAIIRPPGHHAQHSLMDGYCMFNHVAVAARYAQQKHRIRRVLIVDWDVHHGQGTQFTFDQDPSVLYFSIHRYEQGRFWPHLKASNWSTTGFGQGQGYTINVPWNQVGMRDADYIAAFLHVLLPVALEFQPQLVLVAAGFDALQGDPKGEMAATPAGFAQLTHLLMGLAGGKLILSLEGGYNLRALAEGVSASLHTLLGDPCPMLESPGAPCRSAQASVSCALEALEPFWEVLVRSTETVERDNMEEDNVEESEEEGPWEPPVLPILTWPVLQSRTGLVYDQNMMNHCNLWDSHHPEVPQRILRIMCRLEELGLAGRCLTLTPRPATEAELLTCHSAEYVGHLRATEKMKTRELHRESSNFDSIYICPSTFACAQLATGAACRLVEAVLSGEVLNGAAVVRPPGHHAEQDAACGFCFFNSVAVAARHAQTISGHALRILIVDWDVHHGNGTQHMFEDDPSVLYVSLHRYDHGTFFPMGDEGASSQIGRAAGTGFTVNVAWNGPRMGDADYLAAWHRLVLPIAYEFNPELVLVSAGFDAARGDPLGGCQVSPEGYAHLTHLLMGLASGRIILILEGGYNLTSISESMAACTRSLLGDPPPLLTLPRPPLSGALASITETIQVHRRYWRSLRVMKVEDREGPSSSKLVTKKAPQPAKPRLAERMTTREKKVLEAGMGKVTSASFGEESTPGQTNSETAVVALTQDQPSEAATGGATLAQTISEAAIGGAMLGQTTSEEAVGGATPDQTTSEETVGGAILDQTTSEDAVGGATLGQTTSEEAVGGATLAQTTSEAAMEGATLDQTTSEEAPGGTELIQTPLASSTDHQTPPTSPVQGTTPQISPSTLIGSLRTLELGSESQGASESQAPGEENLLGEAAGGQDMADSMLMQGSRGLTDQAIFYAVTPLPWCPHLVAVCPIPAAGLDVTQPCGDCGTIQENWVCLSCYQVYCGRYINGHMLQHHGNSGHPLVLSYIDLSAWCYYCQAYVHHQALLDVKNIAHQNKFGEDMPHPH

[5] = target: T5, Recombinant human HDAC8 (Homo sapiens, UniProt Q9BY41); test: Human HDAC enzyme inhibitor Fluor-de-Lys assay, HDAC8
T5 construct: purchased Enzo Life Sciences BML-SE145-0100
T5 sequence (Q9BY41 1-377): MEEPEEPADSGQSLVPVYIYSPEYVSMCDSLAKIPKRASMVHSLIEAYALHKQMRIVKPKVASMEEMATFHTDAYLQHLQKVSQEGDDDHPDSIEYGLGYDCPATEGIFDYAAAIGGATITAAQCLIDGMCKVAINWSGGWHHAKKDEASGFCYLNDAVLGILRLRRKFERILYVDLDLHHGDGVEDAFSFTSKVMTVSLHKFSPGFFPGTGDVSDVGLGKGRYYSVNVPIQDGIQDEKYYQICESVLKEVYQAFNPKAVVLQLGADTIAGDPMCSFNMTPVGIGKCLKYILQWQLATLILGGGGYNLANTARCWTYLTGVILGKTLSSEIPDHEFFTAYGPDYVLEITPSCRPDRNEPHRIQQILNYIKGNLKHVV

T1 sequence (O15379 whole entry): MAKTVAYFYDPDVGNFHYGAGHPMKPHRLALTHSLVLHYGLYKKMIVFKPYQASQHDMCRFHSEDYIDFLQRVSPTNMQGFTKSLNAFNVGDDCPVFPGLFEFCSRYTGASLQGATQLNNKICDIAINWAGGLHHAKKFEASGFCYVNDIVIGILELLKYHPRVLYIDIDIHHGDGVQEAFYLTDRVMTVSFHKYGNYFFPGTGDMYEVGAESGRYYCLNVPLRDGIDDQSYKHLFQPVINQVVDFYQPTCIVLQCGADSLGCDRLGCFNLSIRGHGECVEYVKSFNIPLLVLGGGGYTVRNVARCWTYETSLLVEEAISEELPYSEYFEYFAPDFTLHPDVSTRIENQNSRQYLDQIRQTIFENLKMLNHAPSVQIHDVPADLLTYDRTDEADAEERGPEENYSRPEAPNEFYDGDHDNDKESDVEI
T1 sequence (Q9Y618 1-899 partner limits assumed): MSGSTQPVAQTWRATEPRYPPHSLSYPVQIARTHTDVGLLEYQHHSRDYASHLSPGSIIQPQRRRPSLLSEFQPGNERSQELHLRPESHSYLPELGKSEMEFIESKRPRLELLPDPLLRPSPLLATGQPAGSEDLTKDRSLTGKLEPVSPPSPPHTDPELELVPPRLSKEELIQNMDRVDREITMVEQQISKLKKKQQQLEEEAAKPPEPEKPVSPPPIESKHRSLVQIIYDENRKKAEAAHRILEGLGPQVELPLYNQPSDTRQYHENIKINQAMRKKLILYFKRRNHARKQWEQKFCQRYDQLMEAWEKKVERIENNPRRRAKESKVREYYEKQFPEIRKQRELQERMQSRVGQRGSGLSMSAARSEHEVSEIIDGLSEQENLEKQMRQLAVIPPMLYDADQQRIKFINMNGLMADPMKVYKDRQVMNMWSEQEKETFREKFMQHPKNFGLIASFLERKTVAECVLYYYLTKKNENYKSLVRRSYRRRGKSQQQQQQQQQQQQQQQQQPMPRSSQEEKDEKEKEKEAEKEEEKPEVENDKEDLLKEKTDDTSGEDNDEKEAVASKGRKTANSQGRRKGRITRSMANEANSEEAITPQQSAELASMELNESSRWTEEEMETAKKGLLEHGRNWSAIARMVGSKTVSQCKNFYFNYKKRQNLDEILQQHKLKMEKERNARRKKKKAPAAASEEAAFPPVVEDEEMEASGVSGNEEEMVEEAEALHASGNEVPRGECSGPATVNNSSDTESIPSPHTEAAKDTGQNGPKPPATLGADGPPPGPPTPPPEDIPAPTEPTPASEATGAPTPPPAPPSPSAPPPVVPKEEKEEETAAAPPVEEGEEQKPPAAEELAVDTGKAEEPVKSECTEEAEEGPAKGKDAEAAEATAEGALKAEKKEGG

| SMILES | pIC50 [1] | pIC50 [2] | pIC50 [3] | pIC50 [4] | pIC50 [5] |
| --- | --- | --- | --- | --- | --- |
| CCC(=O)CCCCC[C@H](NC(=O)C1CC12CCN(C)C(C)(C)C2)c1ncc(-c2ccc3nc(C)ccc3c2)[nH]1 (single isomer, unassigned) [Compound 130] | 8.64 | 8.25 | 7.82 | 5.67 | 5.22 |
| CCC(=O)CCCCC[C@H](NC(=O)C1CC12CCN(C)C(C)(C)C2)c1ncc(-c2ccc3nc(C)ccc3c2)[nH]1 (single isomer, unassigned) [Compound 131] | 9.24 | 9.32 | 8.60 | 5.64 | 5.56 |
| CCC(=O)CCCCC[C@H](NC(=O)C1CC12CCN(C)C(C)(C)C2)c1ncc(-c2ccc3nc(C)ccc3c2)[nH]1 (single isomer, unassigned) [Compound 132] | > 8.82 | 8.63 | 8.19 | 5.43 | 5.09 |
| CCC(=O)CCCCC[C@H](NC(=O)C1CC12CCN(C)C(C)(C)C2)c1ncc(-c2ccc3nc(C)ccc3c2)[nH]1 (single isomer, unassigned) [Compound 133] | > 8.82 | > 8.82 | 8.68 | 6.06 | 5.69 |
| CCC(=O)CCCCC[C@H](NC(=O)[C@@]1(C)CC12CCN(C(C)C)CC2)c1ncc(-c2ccc3nc(C)ccc3c2)[nH]1 (single isomer, unassigned) [Compound 151, (1S or 1R)-1-methyl-6-(1-methylethyl)-N-{(1S)-1-[5-(2-methylquinolin-6-yl)-1H-imidazol-2-yl]-7-oxononyl}-6-azaspiro[2.5]octane-1-carboxamide] | 8.40 | 8.24 | 7.66 | 5.24 | 5.50 |
| CCC(=O)CCCCC[C@H](NC(=O)C1(C)CC12CCN(C(C)C)CC2)c1ncc(-c2ccc3nc(C)ccc3c2)[nH]1 (single isomer, unassigned) [Compound 152, (1S or 1R)-1-methyl-6-(1-methylethyl)-N-{(1S)-1-[5-(2-methylquinolin-6-yl)-1H-imidazol-2-yl]-7-oxononyl}-6-azaspiro[2.5]octane-1-carboxamide] | 9.07 | 9.03 | 8.40 | 4.72 | 5.30 |
| CCC(=O)CCCCC[C@H](NC(=O)C1CC12CC1CCC(C2)N1C)c1ncc(-c2ccc3ncccc3c2)[nH]1 (single isomer, unassigned) [Compound 166] | 9.49 | 9.43 | 8.66 | 6.64 | 5.25 |
| CCC(=O)CCCCC[C@H](NC(=O)C1CN(C)C1)c1[nH]c(-c2ccc(F)cc2)nc1Br [Compound 65, N-{(1S)-1-[4-bromo-2-(4-fluorophenyl)-1H-imidazol-5-yl]-7-oxononyl}-1-methylazetidine-3-carboxamide] | 7.69 | 7.35 | 6.51 | < 4.35 | 4.40 |
| CCC(=O)CCCCC[C@H](NC(=O)[C@H]1CC12CCN(C)CC2)c1ncc(-c2ccc3nc(N(C)C)ccc3c2)[nH]1 [Compound 66, (1S)—N-[(1S)-1-{5-[2-(dimethylamino)quinolin-6-yl]-1H-imidazol-2-yl}-7-oxononyl]-6-methyl-6-azaspiro[2.5]octane-1-carboxamide] | 6.78 | 6.83 | < 6.05 | < 6.35 | < 5.82 |
| CCC(=O)CCCCC[C@H](NC(=O)[C@H]1CC12CCN(C)CC2)c1ncc(-c2cnc3cccnc3c2)[nH]1 [Compound 67] |  | 7.71 | 7.00 | 5.89 | 5.59 |
| CN1CCC2(CC1)C[C@@H]2C(=O)N[C@@H](CCCCCC(=O)CC(F)(F)F)c1ncc(-c2ccc(F)cc2)[nH]1 [Compound 68] | 8.07 | 8.06 | 6.90 | 5.17 | 5.36 |
| CCC(=O)CCCCC[C@H](NC(=O)C1CN(C)C1)c1ncc(-c2ccc3c(c2)C2CCC3C2)[nH]1 (stereo partly drawn) [Compound 73, 1-methyl-N-{(1S)-7-oxo-1-[5-(1,2,3,4-tetrahydro-1,4-methanonaphthalen-6-yl)-1H-imidazol-2-yl]nonyl}azetidine-3-carboxamide] | 8.02 | 7.51 | 6.86 | 5.19 | 5.51 |
| CCC(=O)CCCCC[C@H](NC(=O)[C@H]1CC12CCN(C)CC2)c1ncc(-c2ccc3c(c2)C2CCC3C2)[nH]1 (some centres unmarked) [Compound 74] | 8.43 | 8.09 | 7.44 | 5.11 | 5.34 |
| CCC(=O)CCCCC[C@H](NC(=O)[C@H]1CC12CCN(C)CC2)c1ncc(-c2cc3ccccc3nc2OC)o1 [Compound 77] |  | 8.82 | 8.32 | 6.70 | 4.66 |
| CCC(=O)CCCCC[C@H](NC(=O)C1=NOC2(CCN(C)CC2)C1)c1ncc(-c2cc3ccccc3nc2OC)[nH]1 [Compound 105] |  | 9.04 | 8.28 | 5.82 | 5.54 |
| CCC(=O)CCCCC[C@H](NC(=O)[C@H]1CC12CCN(C)CC2)c1ncc(-c2cc3ccccc3nc2OC)o1 [Compound 125] |  | > 8.82 | 8.25 | 6.60 | 4.63 |
| CCC(=O)CCCCC[C@H](NC(=O)[C@H]1CC12CCN(CC1CC1)CC2)c1ncc(-c2cc3ccc(=O)n(C)c3cc2OC)o1 [Compound 199] |  | 9.46 | 8.89 | 6.67 | 6.52 |
